# Measured values from BindingDB's records for doi:10.7270/Q2TX3CSC (Vanderbilt Screening Center for GPCRs, Ion Channels and …, 2009).
# Biological target: T1, Solute carrier family 12 member 5 (Homo sapiens, UniProt Q9H2X9)
# T1 sequence (Q9H2X9 whole entry): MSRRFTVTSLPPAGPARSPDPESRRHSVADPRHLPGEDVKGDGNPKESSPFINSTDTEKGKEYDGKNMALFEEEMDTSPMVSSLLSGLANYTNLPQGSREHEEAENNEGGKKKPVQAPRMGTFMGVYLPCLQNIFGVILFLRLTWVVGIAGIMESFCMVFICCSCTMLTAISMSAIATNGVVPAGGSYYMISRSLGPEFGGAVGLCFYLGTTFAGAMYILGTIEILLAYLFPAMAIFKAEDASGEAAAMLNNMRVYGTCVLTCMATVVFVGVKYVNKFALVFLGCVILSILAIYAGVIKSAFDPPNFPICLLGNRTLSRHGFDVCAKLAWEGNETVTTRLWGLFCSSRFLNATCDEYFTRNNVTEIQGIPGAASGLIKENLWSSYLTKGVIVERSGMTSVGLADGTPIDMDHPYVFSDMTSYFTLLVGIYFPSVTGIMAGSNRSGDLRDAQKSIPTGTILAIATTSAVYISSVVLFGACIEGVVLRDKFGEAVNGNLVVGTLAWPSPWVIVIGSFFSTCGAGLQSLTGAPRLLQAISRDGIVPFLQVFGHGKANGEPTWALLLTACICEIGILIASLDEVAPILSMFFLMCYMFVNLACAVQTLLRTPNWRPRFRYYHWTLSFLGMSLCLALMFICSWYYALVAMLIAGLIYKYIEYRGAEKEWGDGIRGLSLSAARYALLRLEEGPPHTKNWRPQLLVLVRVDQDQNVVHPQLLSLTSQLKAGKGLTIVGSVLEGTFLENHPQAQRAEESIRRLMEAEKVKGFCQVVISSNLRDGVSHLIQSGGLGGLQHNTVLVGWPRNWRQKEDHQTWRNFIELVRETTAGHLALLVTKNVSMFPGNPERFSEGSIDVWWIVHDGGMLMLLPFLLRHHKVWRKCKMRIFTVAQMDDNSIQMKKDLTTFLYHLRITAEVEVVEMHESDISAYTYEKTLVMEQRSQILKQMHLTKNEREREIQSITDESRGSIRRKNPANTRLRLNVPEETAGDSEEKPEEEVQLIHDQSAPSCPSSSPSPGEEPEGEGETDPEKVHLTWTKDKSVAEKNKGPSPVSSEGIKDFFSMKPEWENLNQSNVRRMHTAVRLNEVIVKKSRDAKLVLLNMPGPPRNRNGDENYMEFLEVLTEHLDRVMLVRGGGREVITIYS
# Assay: KCC2 modulator potency by thallium flux, dose response, cell-based, HEK293 KCC2, FluoZin-2 fluorescence (AID 1736)
# Conditions: not given
row,Structure (SMILES),EC50 [µM]
1,"O=C(O)CC/C(=C\c1ccccc1[N+](=O)[O-])c1nc2ccccc2s1 [(E)-4-(1,3-benzothiazol-2-yl)-5-(2-nitrophenyl)-4-pentenoic acid]",500
2,"O=C(O)CC/C(=C\c1ccc(N2CCOCC2)c([N+](=O)[O-])c1)c1nc2ccccc2s1 [(E)-4-(1,3-benzothiazol-2-yl)-5-(4-morpholin-4-yl-3-nitro-phenyl)pent-4-enoic acid]",2.66
3,COc1ccccc1N1CCN(C(=S)NC(=O)/C=C/c2ccccc2)CC1 [(E)-N-[4-(2-Methoxy-phenyl)-piperazine-1-carbothioyl]-3-phenyl-acrylamide],20
4,CC[C@H](CO)Nc1nc(Nc2cccc(Cl)c2)c2ncn(C(C)C)c2n1 [(R)-2-(6-(3-chlorophenylamino)-9-isopropyl-9H-purin-2-ylamino)butan-1-ol],9.54
5,O=C(CNC(=O)/C(=C\c1ccc(Br)cc1)NC(=O)c1ccccc1)OCc1ccccc1 [(phenylmethyl) 2-[[(E)-2-benzamido-3-(4-bromophenyl)prop-2-enoyl]amino]ethanoate],0.993
6,O=C(CNC(=O)/C(=C/c1ccccc1)NC(=O)c1ccc(Br)cc1)OCc1ccccc1 [(phenylmethyl) 2-[[(Z)-2-[(4-bromophenyl)carbonylamino]-3-phenyl-prop-2-enoyl]amino]ethanoate],1.15
7,CCCCNc1cc(C(=O)O)cc(S(N)(=O)=O)c1Oc1ccccc1 [Fordiuran],4.69e-05
8,COc1ccccc1-n1cnc2cc(NS(=O)(=O)c3ccccc3)ccc21 [MLS000032522],1.9
9,Cc1ccc2c(c1)nnn2C1CCN(S(=O)(=O)c2cccc(S(=O)(=O)N(C)C)c2)CC1 [MLS000033642],3.38
10,O=C(CSc1ncccc1-c1nc2ccccc2[nH]1)N1CCN(c2ccccc2F)CC1 [MLS000033700],34.5
11,N#Cc1ccccc1NC(=O)CSc1nccn1CCc1ccccc1 [MLS000051858],3.24
12,Cc1nn(-c2nc3ccccc3[nH]2)c(N)c1-c1ccccc1 [MLS000063763],21.3
13,O=S(=O)(NCCc1ccccc1F)c1cccc(S(=O)(=O)N2CCOCC2)c1 [MLS000076090],1.65
14,O=C(NCCc1csc(-c2ccccc2)n1)c1cccs1 [MLS000102716],174
15,O=C(Nc1ccc2oc(-c3ccccc3)nc2c1)c1ccncc1 [MLS000109492],4.95
16,Cn1c(C(=O)NCCCN2CCN(c3ccccc3F)CC2)cc2c(=O)n(C)c3ccccc3c21 [MLS000118127],10.3
17,Cn1c(C(=O)NCCN2CCN(c3ccccc3F)CC2)cc2c(=O)n(C)c3ccccc3c21 [MLS000118132],3.19
18,Cc1nn(C)c(C)c1C=C1SC(S)=NC1=O [MLS000324943],51.2
19,O=C(Cc1csc(-c2ccccc2)n1)NCc1ccc(F)cc1 [MLS000336311],3.59
20,CCN(CC)S(=O)(=O)c1ccc(NC(=O)CSc2ncnc3ccccc23)cc1 [MLS000393282],1.1
21,CNc1ccc(/C=C(\CCC(=O)O)c2nc3ccccc3s2)cc1[N+](=O)[O-] [MLS000394200],24.6
22,CS(=O)(=O)N(CC(=O)N1CCN(c2ccc(F)cc2)CC1)c1ccc(F)c(Cl)c1 [MLS000531433],5.57
23,Cc1ccc(C(=O)Nc2nc(=O)n(C(=O)c3ccccc3Cl)s2)cc1 [MLS000540480],3.72
24,O=C(NNc1nc(-c2ccccc2)cs1)c1ccccc1 [MLS000547345],0.024
25,CCn1c(CCNC(=O)c2cccs2)nnc1SCC(=O)Nc1nc(-c2ccccc2)cs1 [MLS000548611],4.57
26,O=[N+]([O-])c1ccccc1C=C[CH+][N-]n1c(-c2ccc(Cl)cc2)n[nH]c1=S [MLS000555506],23.6
27,O=C(CC(Cc1ccccc1)c1ccco1)NC1CCCCC1 (stereo unspecified) [MLS000556612],212
28,O=C(O)/C=C/c1cn(Cc2ccccc2)nc1-c1ccccc1 [MLS000567315],3.77

row,Structure (SMILES),EC50 [µM]
1,CNC(=O)/C(=C\C=C\c1ccccc1)NC(=O)c1ccc([N+](=O)[O-])cc1 [MLS000570424],2.8
2,CCc1ccc(OCCNC(=O)c2ccccc2SCc2ccc(F)cc2)cc1 [MLS000577152],1.38
3,CCCC1=NN2C(=N)/C(=C\c3cc(C)n(-c4cc(C)cc(C)c4)c3C)C(=O)N=C2S1 [MLS000588586],6.75
4,CCn1c(SCC(=O)Nc2ccc(Cl)cc2)nc2nc3c(cc2c1=O)CCCC3 [MLS000589154],28.2
5,O=C(CSc1ccc(-c2cccs2)nn1)Nc1ccccc1F [MLS000621184],5.12
6,COc1cccc(CNC(=O)CSc2ccc(-c3cccs3)nn2)c1 [MLS000621194],19.5
7,O=C(NCc1nc(-c2ccccc2)cs1)c1ccccc1 [MLS000661971],6.49
8,CN(CC(=O)N1CCN(Cc2ccccc2)CC1)S(=O)(=O)c1cccc2nsnc12 [MLS000674627],0.58
9,O=C(CN(c1ccc2c(c1)OCCO2)S(=O)(=O)c1ccccc1)N1CCN(Cc2ccccc2)CC1 [MLS000693333],11.7
10,O=C(Nc1ccc2oc(-c3ccccc3F)nc2c1)c1ccco1 [MLS000709180],66.5
11,O=C(c1ccccc1SCc1ccc(F)cc1)N1CCOCC1 [MLS000712999],6.48
12,O=C(NC1CCCC1)C(c1ccncc1)N(Cc1ccco1)C(=O)c1ccc(-c2ccccc2)[nH]1 (stereo unspecified) [MLS000718066],19.2
13,O=C(CSc1ccc(-c2ccccc2)nn1)Nc1ccc2c(c1)OCCO2 [MLS000724887],3.48
14,CC(=O)NCC1CCCN(c2nc3nonc3nc2N(C)Cc2ccccc2)C1 (stereo unspecified) [MLS000731683],2.68
15,CCc1cc(C(=O)N2CCCC(CNC(=O)c3ccc(-c4ccccc4)cc3)C2)no1 (stereo unspecified) [MLS000731765],3.2
16,CC(=O)NCCC(=O)N1CCCC(CNC(=O)c2ccc(-c3ccccc3)cc2)C1 (stereo unspecified) [MLS000733794],5
17,CSCCC(=O)N1CCCC(CNC(=O)c2ccc(-c3ccccc3)cc2)C1 (stereo unspecified) [MLS000733867],7.78
18,Cc1ccc(NC(=O)CCCSc2ccccc2)cc1S(=O)(=O)N1CCOCC1 [MLS000761060],6.79
19,COc1ccccc1NC(=S)NNC1=c2cc(Br)ccc2=NC1=O [MLS000778253],0.71
20,O=C(NNc1nc(-c2ccccc2)cs1)c1cccs1 [MLS000858987],0.174
21,CNc1ccc2oc(C[C@H]3O[C@@]4(CC[C@H]3C)O[C@H]([C@H](C)C(=O)c3ccc[nH]3)[C@H](C)C[C@H]4C)nc2c1C(=O)O [MLS001056783],11.3
22,"Cc1csc(NC(=O)CSc2ccc(-c3ccccc3)nn2)n1 [N-(4-methyl-1,3-thiazol-2-yl)-2-(6-phenylpyridazin-3-yl)sulfanyl-ethanamide]",0.249
23,O=C(NCCc1c[nH]c2ccccc12)c1cc(S(=O)(=O)N2CCCCC2)ccc1N1CCOCC1 [N-[2-(1H-indol-3-yl)ethyl]-2-morpholin-4-yl-5-piperidin-1-ylsulfonylbenzamide],208
24,CC(C)(C)NC(=O)C(c1ccncc1)N(Cc1ccco1)C(=O)c1ccc(-c2ccccc2)[nH]1 (stereo unspecified) [N-[2-(tert-butylamino)-2-oxo-1-pyridin-4-ylethyl]-N-(furan-2-ylmethyl)-5-phenyl-1H-pyrrole-2-carboxamide],7.02
25,CC(C)(C)NC(=O)C(c1cccs1)N(CC1CCCO1)C(=O)c1ccc(-c2ccccc2)[nH]1 (stereo unspecified) [N-[2-(tert-butylamino)-2-oxo-1-thiophen-2-ylethyl]-N-(2-oxolanylmethyl)-5-phenyl-1H-pyrrole-2-carboxamide],0.449
26,"O=C(NN1C(=O)/C(=C/c2nc3ccccc3[nH]2)SC1=S)c1ccccc1 [N-[(5Z)-5-(1H-benzimidazol-2-ylmethylidene)-4-oxidanylidene-2-sulfanylidene-1,3-thiazolidin-3-yl]benzamide]",0.38
27,O=C(NN1C(=O)/C(=C/c2nc3ccccc3[nH]2)SC1=S)c1ccccc1Cl [N-{5-[1-(1H-Benzoimidazol-2-yl)-meth-(Z)-ylidene]-4-oxo-2-thioxo-thiazolidin-3-yl}-2-chloro-benzamide],0.0822

# Same assay, conditions: inactive by the depositor's call
row,Structure (SMILES),EC50 [µM]
1,Cc1cccc(N2CCN(C(=O)CCCn3c(=S)[nH]c4cc5c(cc4c3=O)OCO5)CC2)c1C [MLS000095366],22.6
2,COc1cc(-c2nnc(CSc3nnc(Nc4ccc(C(C)C)cc4)s3)o2)cc(OC)c1OC [MLS000391281],2.2
3,CN(C)S(=O)(=O)c1ccc(NC(=O)CSc2ncnc3ccccc23)cc1 [MLS000394067],87700
4,COc1ccc(OC)c2sc(NNC(=O)COc3ccccc3)nc12 [MLS000419249],2.62
5,O=C(/C=C/c1cccc([N+](=O)[O-])c1)Nc1cccc(NC(=O)c2cccs2)c1 [MLS000574752],3.68
6,CC(/C=C1\SC(=S)N(C(C(=O)O)C(C)C)C1=O)=C\c1ccccc1 (stereo unspecified) [MLS000713304],2.68
